In PubChem BioAssay (NCI):
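Protocol summary: plate cells (96-well), add compound at 5 concentrations, incubate 48 h, interpolate endpoints linearly. Abbreviation: GI50, concentration required for 50% inhibition of growth. Definition used: TGI = concentration required for complete inhibition of growth.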

Key:
P388/ADR leukemia = experiment: NCI tumour cell line growth inhibition, 48 h
P388 leukemia = experiment: NCI tumour cell line growth inhibition, 48 h

Row | Structure (SMILES) | GI50 (P388/ADR leukemia) [µM] | TGI (P388/ADR leukemia) [µM] | GI50 (P388 leukemia) [µM] | TGI (P388 leukemia) [µM]
1 | O=C(O)c1ccc(C(=O)O)c(C(=O)O)c1.[NH-]C1CCCCC1[NH-].[Pt+2] | 2.15 | > 100 | 0.262 | 14.6
2 | CCOC(=O)Nc1ccc2c(c1)N(C(=O)CCN(CC)CC)c1ccccc1S2 | – | – | – | 32.2
